Literature values, collected in PubChem BioAssay AID1259409 (Chemical Carcinogenesis Research Information System (CCRIS), 2018).
Several values for one entry are separate records, joined by “and”; a condition that tells them apart may be missing. Equal values may be shown once.

System: rodent chemically induced tumor inhibition, incidence and multiplicity
Experiment: CCRIS tumor inhibitor studies
Conditions: Promoter: NONE USED

Structure (SMILES) | tumour outcome (control, treated, inhibition, significance) (Carcinogen: 1,2-DIMETHYLHYDRAZINE, 540-73-8, Dose [Inhibitor]: 0, 500 MG/KG BW IN CORN OIL 5 D/WK FOR 20 WK BEGINNING 2 HR POST FIRST CARCINOGEN DOSE (STUDY DURATION: 18 MO), Route [Inhibitor]: GAVAGE, Species: RAT, Strain/Sex: WISTAR/MALE, Target Tissue: Type of Lesion: INTESTINE: TUMOR, Dose [Carcinogen]: 20 MG/KG BW 1/WK FOR 20 WK) | tumour outcome (control, treated, inhibition, significance) (Carcinogen: 1,2-DIMETHYLHYDRAZINE, 540-73-8, Dose [Inhibitor]: 0, 500 MG/KG BW IN CORN OIL 5 D/WK FOR 20 WK BEGINNING 2 HR POST FIRST CARCINOGEN DOSE (STUDY DURATION: 18 MO), Route [Inhibitor]: GAVAGE, Species: RAT, Strain/Sex: WISTAR/MALE, Target Tissue: Type of Lesion: ZYMBAL GLAND: TUMOR, Dose [Carcinogen]: 20 MG/KG BW 1/WK FOR 20 WK) | tumour outcome (control, treated, inhibition, significance) (Carcinogen: 1,2-DIMETHYLHYDRAZINE, 540-73-8, Dose [Inhibitor]: 0, 500 MG/KG BW IN CORN OIL 5 D/WK FOR 20 WK BEGINNING 15 D PRIOR TO CARCINOGEN TREATMENT (STUDY DURATION: 18 MO), Route [Inhibitor]: GAVAGE, Species: RAT, Strain/Sex: WISTAR/MALE, Target Tissue: Type of Lesion: INTESTINE: TUMOR, Dose [Carcinogen]: 20 MG/KG BW 1/WK FOR 20 WK) | tumour outcome (control, treated, inhibition, significance) (Carcinogen: 1,2-DIMETHYLHYDRAZINE, 540-73-8, Dose [Inhibitor]: 0, 500 MG/KG BW IN CORN OIL 5 D/WK FOR 20 WK BEGINNING 15 D PRIOR TO CARCINOGEN TREATMENT (STUDY DURATION: 18 MO), Route [Inhibitor]: GAVAGE, Species: RAT, Strain/Sex: WISTAR/MALE, Target Tissue: Type of Lesion: ZYMBAL GLAND: TUMOR, Dose [Carcinogen]: 20 MG/KG BW 1/WK FOR 20 WK) | tumour outcome (control, treated, inhibition, significance) (Carcinogen: 1,2-DIMETHYLHYDRAZINE, 540-73-8, Dose [Inhibitor]: 5 MG/G IN DIET FOR 17 WK BEGINNING 8 D PRIOR TO CARCINOGEN (STUDY DURATION: 36 WK), Route [Inhibitor]: ORAL, Species: MOUSE, Strain/Sex: C-F1/FEMALE, Target Tissue: Type of Lesion: LARGE INTESTINE: TUMOR, Dose [Carcinogen]: 0.7 MG IN 0.2 ML EDTA SOLUTION 1/WK FOR 16 WK) | tumour outcome (control, treated, inhibition, significance) (Carcinogen: 7,12-DIMETHYLBENZ[A]ANTHRACENE, 57-97-6, Dose [Inhibitor]: 0.03 NMOL/G DIET DAILY FOR 17 WK STARTING 1 WK PRIOR TO CARCINOGEN TREATMENT AND CONTINUING THROUGH THE END OF THE STUDY, Route [Inhibitor]: ORAL, Species: RAT, Strain/Sex: SPRAGUE-DAWLEY/FEMALE, Target Tissue: Type of Lesion: MAMMARY GLAND: TUMOR, Dose [Carcinogen]: 12 MG IN 1 ML OLIVE OIL ONCE) | tumour outcome (control, treated, inhibition, significance) (Carcinogen: 7,12-DIMETHYLBENZ[A]ANTHRACENE, 57-97-6, Dose [Inhibitor]: 100 MG IN 1 ML CARBOWAX 400 SOLUTION ONCE 24 HR BEFORE CARCINOGEN TREATMENT FOLLOWED BY 16 WK OBSERVATION PERIOD (STUDY, Route [Inhibitor]: GAVAGE, Species: RAT, Strain/Sex: SPRAGUE-DAWLEY/FEMALE, Target Tissue: Type of Lesion: MAMMARY GLAND: TUMOR, Dose [Carcinogen]: 12 MG IN 1 ML OLIVE OIL ONCE) | tumour outcome (control, treated, inhibition, significance) (Carcinogen: BENZO[A]PYENE, 50-32-8, Dose [Inhibitor]: 0.03 MMOL/G DIET DAILY FOR 6 WK CONCURRENT WITH CARCINOGEN TREATMENT FOLLOWED BY 14 WK ON STANDARD DIET (STUDY DURATION:, Route [Inhibitor]: ORAL, Species: MOUSE, Strain/Sex: ICR/FEMALE, Target Tissue: Type of Lesion: FORESTOMACH: NEOPLASM, Dose [Carcinogen]: 0.3 MG/G IN DIET DAILY FOR 6 WK) | tumour outcome (control, treated, inhibition, significance) (Carcinogen: BENZO[A]PYENE, 50-32-8, Dose [Inhibitor]: 0.03 MMOL/G DIET DAILY FOR 25 D STARTING 7 D PRIOR TO FIRST CARCINOGEN DOSE AND THEN PLACED ON STANDARD DIET THROUGH THE, Route [Inhibitor]: ORAL, Species: MOUSE, Strain/Sex: STRAIN-A/FEMALE, Target Tissue: Type of Lesion: LUNG: ADENOMA, Dose [Carcinogen]: 3 MG IN 0.5 ML SESAME OIL ADMINISTERED 7 AND 21 D AFTER START OF AGENT) | tumour outcome (control, treated, inhibition, significance) (Carcinogen: BRACKEN FERN, Dose [Inhibitor]: 5 MG/G DIET, DAILY FOR 12 MO SIMULTANEOUS WITH CARCINOGEN (STUDY DURATION: 12 MO), Route [Inhibitor]: ORAL, Species: RAT, Strain/Sex: ALBINO/?, Target Tissue: Type of Lesion: INTESTINE: TUMOR, Dose [Carcinogen]: 0.33 G IN DIET DAILY FOR 12 MO) | tumour outcome (control, treated, inhibition, significance) (Carcinogen: BRACKEN FERN, Dose [Inhibitor]: 5 MG/G DIET, DAILY FOR 12 MO SIMULTANEOUS WITH CARCINOGEN (STUDY DURATION: 12 MO), Route [Inhibitor]: ORAL, Species: RAT, Strain/Sex: ALBINO/?, Target Tissue: Type of Lesion: URINARY BLADDER: TUMOR, Dose [Carcinogen]: 0.33 G IN DIET, DAILY FOR 12 MO) | tumour outcome (control, treated, inhibition, significance) (Carcinogen: TRANS-5-AMINO-3-[2-(5-NITRO-2-FURYL)VINYL]-1,2,4-OXADIAZOLE;SQL8506, 28754-68-9, Carcinogen: TRANS-5-AMINO-3-[2-(5-NITRO-2-FURYL)VINYL]-1,2,4-OXADIAZOLE;SQL8506, 28754-68-9, Dose [Inhibitor]: 1% IN DIET DAILY FOR 11 D BEGINNING 3 D BEFORE, DURING AND 3 D AFTER EACH OF 3 CARCINOGEN TREATMENTS (STUDY DURATION: LI, Route [Inhibitor]: ORAL, Species: MOUSE, Strain/Sex: CD-1/FEMALE, Target Tissue: Type of Lesion: HEMATOPOIETIC SYSTEM: MYELOID LEUKEMIA, Dose [Carcinogen]: 1 G/KG 2/D FOR 5 D EVERY 4 WK FOR 3 COURSES OF TREATMENT) | tumour outcome (control, treated, inhibition, significance) (Carcinogen: TRANS-5-AMINO-3-[2-(5-NITRO-2-FURYL)VINYL]-1,2,4-OXADIAZOLE;SQL8506, 28754-68-9, Carcinogen: TRANS-5-AMINO-3-[2-(5-NITRO-2-FURYL)VINYL]-1,2,4-OXADIAZOLE;SQL8506, 28754-68-9, Dose [Inhibitor]: 1% IN DIET DAILY FOR 11 D BEGINNING 3 D BEFORE, DURING AND 3 D AFTER EACH OF 3 CARCINOGEN TREATMENTS (STUDY DURATION: LI, Route [Inhibitor]: ORAL, Species: MOUSE, Strain/Sex: CD-1/FEMALE, Target Tissue: Type of Lesion: LYMPHOID TISSUE: NONTHYMIC LYMPHOMA, Dose [Carcinogen]: 1 G/KG 2/D FOR 5 D EVERY 4 WK FOR 3 COURSES OF TREATMENT) | tumour outcome (control, treated, inhibition, significance) (Carcinogen: TRANS-5-AMINO-3-[2-(5-NITRO-2-FURYL)VINYL]-1,2,4-OXADIAZOLE;SQL8506, 28754-68-9, Carcinogen: TRANS-5-AMINO-3-[2-(5-NITRO-2-FURYL)VINYL]-1,2,4-OXADIAZOLE;SQL8506, 28754-68-9, Dose [Inhibitor]: 1% IN DIET DAILY FOR 11 D BEGINNING 3 D BEFORE, DURING AND 3 D AFTER TREATMENT EACH OF 3 CARCINOGEN TREATMENTS (STUDY DU, Route [Inhibitor]: ORAL, Species: MOUSE, Strain/Sex: CD-1/FEMALE, Target Tissue: Type of Lesion: STOMACH: SQUAMOUS CARCINOMA, Dose [Carcinogen]: 1 G/KG 2/D FOR 5 D EVERY 4 WK FOR 3 COURSES OF TREATMENT) | tumour outcome (control, treated, inhibition, significance) (Carcinogen: URETHANE, 51-79-6, Dose [Inhibitor]: 0, 500 MG/KG IN CORN OIL AT 24 HR AND 1 HR PRIOR TO CARCINOGEN DOSE (STUDY DURATION: 4 MO), Route [Inhibitor]: GAVAGE, Species: MOUSE, Strain/Sex: BALB/MALE, FEMALE, Target Tissue: Type of Lesion: LUNG: TUMOR, Dose [Carcinogen]: 1 G/KG IN 0.9% SALINE ONCE) | tumour outcome (control, treated, inhibition, significance) (Carcinogen: URETHANE, 51-79-6, Dose [Inhibitor]: 0, 500 MG/KG IN CORN OIL FOR 4 D BEGINNING 4 D POST CARCINOGEN DOSE (STUDY DURATION: 4 MO), Route [Inhibitor]: GAVAGE, Species: MOUSE, Strain/Sex: BALB/MALE, FEMALE, Target Tissue: Type of Lesion: LUNG: TUMOR, Dose [Carcinogen]: 1 G/KG IN 0.9% SALINE ONCE) | tumour outcome (control, treated, inhibition, significance) (Carcinogen: N-METHYL-N-NITROSOUREA, 684-93-5, Dose [Inhibitor]: 1000 MG/KG OF LOW (3%) FAT DIET BEGINNING 1 WK POST CARCINOGEN DOSE AND CONTINUING FOR DURATION OF STUDY (STUDY DURATION, Route [Inhibitor]: ORAL, Species: RAT, Strain/Sex: SPRAGUE-DAWLEY/FEMALE, Target Tissue: Type of Lesion: MAMMARY GLAND: TUMOR, Dose [Carcinogen]: 40 MG/KG ONCE)
CCN(CC)C(=S)SSC(=S)N(CC)CC | 100%, 58%, 42%, not calculated | 52%, 4%, 92%, not calculated | 100%, 0%, 100%, not calculated | 68%, 0%, 100%, not calculated | 14/14 (100%), 0/20 (0%), 100%, not calculated | 61%, 22%, 64%, p<0.05 and 79%, 8%, 90%, p<0.001 | 59%, 11%, 81%, p<0.01 | 40%, 0%, 100%, not calculated | 12/12 (100%), 12/12 (100%), 0%, not significant | 30/30 (100%), 12/16 (75%), 25%, p<0.01 | 22/30 (73%), 10/16 (62%), 15%, not significant | 7/137 (5%), 0/34 (0%), 100%, not calculated | 8/137 (6%), 0/34 (0%), 100%, not calculated | 60/137 (44%), 12/34 (35%), 20%, not calculated | 100%, 63%, 37%, not significant | 100%, 94%, 6%, not significant | 
c1c[nH]cn1 |  |  |  |  |  |  |  |  |  |  |  |  |  |  |  |  | 78%, 92%, -18%, not calculated
